Substitutions are numbered along the chain they refer to. Values belong to the compound of their own block, whether it stands above or below them.
What was measured:
URAT1EM = molecular target: T1, URAT1EM (Homo sapiens, UniProt Q96S37, A280P/A304R/A323S/A335R/D313K/DEL311-312/DEL60-62/G295A/G309E/G331A/G338L/G65T/I63V/INS307H/L287I/L292P/L321M/L328V/L337V/L341F/L64S/M324V/M330S/M343V/P317I/P333E/Q332K/R291K/R301K/R325K/R342C/S329A/T288I/T289K/T314N/T339D/W294Q/W300R); assay: 14C-urate uptake in HEK293 cells expressing URAT1EM (cryo-EM construct); format: cell-based; conditions: read-out: IC50 for URAT1EM
T1 construct: human URAT1 (residues 3–553), a (GGGGS)3 linker, and C-terminal DARPinoff7; expressed in transfected cells; host or cells: HEK293 cells (ATCC, CRL-3216), transient transfection
T1 sequence (Q96S37 with tags, fused parts or gaps DEL60-62/I63V/L64S/G65T/A280P/L287I/T288I/T289K/R291K/L292P/W294Q/G295A/W300R/R301K/A304R/INS307H/G309E/DEL311-312/D313K/T314N/P317I/L321M/A323S/M324V/R325K/L328V/S329A/M330S/G331A/Q332K/P333E/A335R/L337V/G338L/T339D/L341F/R342C/M343V): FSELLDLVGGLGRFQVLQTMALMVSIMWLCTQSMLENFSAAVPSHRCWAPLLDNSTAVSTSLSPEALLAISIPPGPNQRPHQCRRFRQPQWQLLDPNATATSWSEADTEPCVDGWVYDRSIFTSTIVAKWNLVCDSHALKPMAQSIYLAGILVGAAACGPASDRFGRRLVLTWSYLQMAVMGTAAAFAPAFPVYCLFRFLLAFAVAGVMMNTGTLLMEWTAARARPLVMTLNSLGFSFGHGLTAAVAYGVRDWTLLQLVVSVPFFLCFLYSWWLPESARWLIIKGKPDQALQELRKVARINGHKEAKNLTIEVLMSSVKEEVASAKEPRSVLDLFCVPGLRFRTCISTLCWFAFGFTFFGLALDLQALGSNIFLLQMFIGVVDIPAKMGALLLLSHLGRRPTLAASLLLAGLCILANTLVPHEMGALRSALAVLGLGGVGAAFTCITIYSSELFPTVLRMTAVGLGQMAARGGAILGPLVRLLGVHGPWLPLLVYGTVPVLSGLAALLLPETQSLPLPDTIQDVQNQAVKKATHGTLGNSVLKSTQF
Description: (§1) Data are shown as mean ± SD; n = 3 biological replicates. In a, b, uptake buffer: 20 mM HEPES pH 7.4, 125 mM sodium gluconate, 4.8 mM potassium gluconate, 1.2 mM monobasic potassium phosphate, 1.2 mM magnesium sulfate, 1.3 mM calcium gluconate, and 5.6 mM glucose. c Cryo-EM density maps of URAT1 in the apo and substrate-bound states. […] Putative lipid densities are in light cyan. d Cryo-EM density maps of URAT1 in the drug-bound states. […] Putative lipid densities are in light cyan. e Diagram of URAT1 topology. ECD, extracellular domain. f Structure of URAT1 in the apo state. g Slice view of URAT1 in the apo state, showing the central cavity and opening to the intracellular side.
(§2) Human embryonic kidney (HEK) 293 cells (ATCC, CRL-3216) were seeded onto poly(D-lysine)-coated 96-well plates at a density of 0.3 × 10^5 cells per well and cultured at 37 °C until reaching approximately 70%–80% confluence. The cells were transiently transfected with plasmids encoding the URAT1 WT or mutants using Lipofectamine 3000 (Invitrogen, L3000001), following the manufacturer’s protocol. The transfected cells were cultured at 37 °C for 12 h. Following this, 10 mM sodium butyrate was added, and the cells were further incubated at 30 °C for an additional 24 h. […]

URAT1WT [1] = molecular target: T2, URAT1WT (Homo sapiens, UniProt Q96S37); assay: 14C-urate uptake inhibition in HEK293 cells expressing WT URAT1; format: cell-based
T2 construct: expressed in transfected cells; host or cells: HEK293 cells (ATCC, CRL-3216), transient transfection with Lipofectamine 3000
T2 sequence (Q96S37 1-553): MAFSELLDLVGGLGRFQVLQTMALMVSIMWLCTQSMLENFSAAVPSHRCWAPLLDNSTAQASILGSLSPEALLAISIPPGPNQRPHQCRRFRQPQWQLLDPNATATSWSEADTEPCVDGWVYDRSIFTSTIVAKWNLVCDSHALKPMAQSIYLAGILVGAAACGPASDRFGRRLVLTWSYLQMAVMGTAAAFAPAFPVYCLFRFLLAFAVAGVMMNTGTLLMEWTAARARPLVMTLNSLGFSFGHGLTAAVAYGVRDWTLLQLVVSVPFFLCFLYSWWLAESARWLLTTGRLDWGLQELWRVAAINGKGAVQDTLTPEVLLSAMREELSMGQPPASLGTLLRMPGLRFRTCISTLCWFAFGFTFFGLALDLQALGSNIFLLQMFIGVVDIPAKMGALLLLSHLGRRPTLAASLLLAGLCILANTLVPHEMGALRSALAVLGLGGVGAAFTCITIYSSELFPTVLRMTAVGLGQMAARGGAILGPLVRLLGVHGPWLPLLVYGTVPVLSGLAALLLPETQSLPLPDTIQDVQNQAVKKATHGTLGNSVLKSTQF
Description: as §1, §2

URAT1 Q473E = molecular target: T3, URAT1 Q473E (Homo sapiens, UniProt Q96S37, Q473E); assay: Anion preloading 14C-urate uptake assay, URAT1 Q473E; format: cell-based; conditions: Fig. 4e, f; Site 1 mutant
T3 construct: expressed in transfected cells; host or cells: HEK293 cells (ATCC, CRL-3216), transient transfection
T3 sequence (Q96S37 1-553 Q473E): T2 sequence (Q96S37 1-553) with Q473E

URAT1WT [2] = molecular target: T2, URAT1WT; assay: Anion preloading 14C-urate uptake assay, WT URAT1; format: cell-based; conditions: Fig. 4e, f, NaCl uptake buffer
URAT1 = molecular target: T4, URAT1 (Homo sapiens, UniProt Q96S37); assay: Effect of reducing anion gradients on 14C-urate uptake; format: cell-based; conditions: 125 mM sodium phosphate in place of sodium gluconate in uptake buffer, Fig. S12b
T4 construct: expressed in transfected cells; host or cells: HEK293 cells (ATCC, CRL-3216), transient transfection with Lipofectamine 3000
T4 sequence (Q96S37 1-553): T2 sequence (Q96S37 1-553)
Description: Human embryonic kidney (HEK) 293 cells (ATCC, CRL-3216) were seeded onto poly(D-lysine)-coated 96-well plates at a density of 0.3 × 10^5 cells per well and cultured at 37 °C until reaching approximately 70%–80% confluence. The cells were transiently transfected with plasmids encoding the URAT1 WT or mutants using Lipofectamine 3000 (Invitrogen, L3000001), following the manufacturer’s protocol. The transfected cells were cultured at 37 °C for 12 h. Following this, 10 mM sodium butyrate was added, and the cells were further incubated at 30 °C for an additional 24 h. The medium was aspirated, and the cells were rinsed once with assay buffer (20 mM HEPES pH 7.4, 125 mM sodium gluconate, 4.8 mM potassium gluconate, 1.2 mM monobasic potassium phosphate, 1.2 mM magnesium sulfate, 1.3 mM calcium gluconate, and 5.6 mM glucose) and then incubated with 400 µM urate consisted of 80 µM ^14C-radiolabeled (50–60 mCi/mmol, 0.5 mCi/mL, American Radiolabeled Chemicals, Inc.) and 320 µM non-radiolabeled in assay buffer at 37 °C for 20 min. In some experiments, 125 mM sodium gluconate was replaced by sodium chloride, sulfate, or phosphate. […] The cells were then lysed in 0.1 M NaOH, and the lysed samples were added to scintillation liquid to measure radioactivity using a PerkinElmer Microbeta2 counter. […]

[3] = molecular target: human URAT1 tagged with MBP and DARPin, with part of the intracellular loop (residues 280-343) replaced by OAT4 residues 277-339 (human) (UniProt Q96S37); assay: cryo-EM particle images; purified protein at the high concentration used to prepare cryo-EM grids; particles seen on the grids (Supplementary Fig. S1b)

IC50 (URAT1EM): 63 nM | IC50 (URAT1WT [1]): 53 nM
Compound: CC(C)(Sc1ccncc1-c1ccc(C#N)c2ccccc12)C(=O)O [verinurad]

Compound: O=C(O)c1cnccn1 [Pyrazinoate, pyrazinoate]
Potentiation in urate uptake by anion preloading (fold change), Q473E (URAT1 Q473E): 1.2 fold | Potentiation in urate uptake by anion preloading (fold change), WT (URAT1WT [2]): 3.5 fold

Impact on URAT1 function (14C-urate uptake) (URAT1): minimal impact
Compound: phosphate

stoichiometry N [3]: 2
Compound: human URAT1 tagged with MBP and DARPin, with part of the intracellular loop (residues 280-343) replaced by OAT4 residues 277-339 (from UniProt Q96S37 1-279; Q9NSA0 277-339; Q96S37 344-553)

From article PMC11528023, “Transport mechanism and structural pharmacology of human urate transporter URAT1” (Cell Research, 2024)
